Assay results reported in US20150175599A1, “FAAH Inhibitors” (Ironwood Pharmaceuticals, Inc., priority 2010, published 2015).
pIC50: −log10 of the molar value.

Target: T1, FAAH (Rattus norvegicus, UniProt P97612)
T1 construct: For the assay of FAAH activity in rat brain membrane (RBM) homogenates; tissue Charles River (animals); host or cells: rat whole brain, membrane fraction
T1 sequence (P97612 1-579): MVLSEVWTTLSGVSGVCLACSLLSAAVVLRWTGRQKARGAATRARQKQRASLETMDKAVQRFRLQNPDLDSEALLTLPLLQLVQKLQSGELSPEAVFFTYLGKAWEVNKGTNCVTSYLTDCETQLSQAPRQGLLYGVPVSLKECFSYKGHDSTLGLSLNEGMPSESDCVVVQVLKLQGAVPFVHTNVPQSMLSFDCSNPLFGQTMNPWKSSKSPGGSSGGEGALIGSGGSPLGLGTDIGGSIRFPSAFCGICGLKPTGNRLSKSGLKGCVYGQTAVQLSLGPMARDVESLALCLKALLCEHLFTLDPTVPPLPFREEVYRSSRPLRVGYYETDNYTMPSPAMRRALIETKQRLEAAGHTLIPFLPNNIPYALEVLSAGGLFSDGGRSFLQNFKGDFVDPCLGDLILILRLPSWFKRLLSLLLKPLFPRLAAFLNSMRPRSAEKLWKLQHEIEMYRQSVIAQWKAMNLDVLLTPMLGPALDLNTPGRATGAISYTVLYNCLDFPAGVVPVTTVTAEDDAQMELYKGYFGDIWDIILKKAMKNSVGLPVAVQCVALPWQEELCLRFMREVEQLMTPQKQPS
Assay: FAAH inhibition, rat brain membrane homogenate assay
Assay type: biochemical
Conditions: rat brain homogenate; average activity; read-out: Rat Brain Extract FAAH IC50
Protocol: Adult rats (Charles River CD strain, female, 200 g) were anaesthetized with isofluorane and rapidly decapitated. Each brain was quickly removed and chilled in tubes (3 brains per tube) on ice. About 25 mL of “homogenization buffer” (20 mM HEPES buffer, pH 7.0, with 1 mM MgCl2) was added to 15 to 20 g of brain. The brains were homogenized on ice for 1 minute using an Omni GLH homogenizer (Omni International, Marietta, Ga.). The homogenates were then transferred to three centrifuge tubes and centrifuged at 36,500 g for 20 minutes at 4° C. The supernatant was discarded and each pellet was re-suspended in 25 mL homogenization buffer. The re-suspended material was again centrifuged (36,500 g, 20 minutes at 4° C.). Pellets were combined by re-suspension in 10 mL of homogenization buffer and incubated in a 37° C. water bath for 15 minutes. The tubes were then placed on ice for 5 minutes followed by centrifugation at 36,500 g for 20 minutes at 4° C. The supernatant was discarded and the membrane pellets were then re-suspended in 40 mL of “re-suspension buffer” (50 mM Tris-HCl buffer, pH 7.4, containing 1 mM EDTA and 3 mM MgCl2). A Bradford Protein assay was performed to determine protein concentration. The protein was aliquotted into screw cap Cryo tubes each containing −400 μL, flash-frozen in liquid nitrogen and stored at −80° C. until used for the assay. A similar protocol was used to obtain brain membrane homogenates from mice
FAAH activity was assayed in the respective homogenates described herein (Rat brain, Mouse brain or Human brain) with certain of the exemplary compounds described above using a modification of the method of Omeir et al. (1995 Life Sci. 56:1999) and Fowler et al. (1997 J. Pharmacol. Exp. Ther. 283:729). For the assay of FAAH activity in rat brain membrane (RBM) homogenates, RBM homogenates (7 μg protein in 20 μL final volume of 10 mM Tris pH 6.5) were mixed with 180 μL of a mixture of the following: […] unlabelled anandamide (AEA), 0.03 Ci radio labeled anandamide [ethanolamine 1-^3H](40-60 Ci/mmol; product number ART-626, American Radiolabelled Chemicals, St. Louis, Mo.), 1 mg/mL Bovine Serum Albumin (fatty acid-free BSA, electrophoresis grade, Sigma, St. Louis, Mo.), 10 mM Tris-HCl (pH 6.5), and 1 mM EDTA in the presence and absence of test compounds (vehicle was DMSO at a final concentration of 1%) and incubated for 10 minutes at 37° C. Samples were placed on ice to terminate the reactions.
The ^3H-ethanolamine product and un-reacted ^3H-anandamide substrate were then separated by either: (1) using chloroform/methanol extraction or (2) passing the reaction mixture through a glass fiber filter containing activated charcoal. Samples were extracted with chloroform/methanol by adding 0.4 mL of chloroform/methanol (1:1 v/v), vigorously mixing the samples, and separating the aqueous and organic phases by centrifugation. Radioactivity (corresponding to FAAH-catalyzed breakdown of ^3H-anandamide) found in aliquots (0.2 mL) of the aqueous phase was determined by liquid scintillation counting with quench correction. IC50 values were determined as described by Jonsson et al. (2001 Br. J Pharmacol. 133:1263). Alternatively, reactions were purified using a modification of the solid-phase extraction method described by Wilson et al (2003 Anal. Biochem. 318: 270). This method was modified as follows: after reactions were incubated at 37° C. for 10 minutes and chilled on ice, the reaction mixtures were acidified by adding 10 μL of sodium phosphate solution[0.5M (pH 2.0)]. Next, 90 μL aliquots of the acidified reaction mixtures were applied to activated charcoal (that had been previously washed with methanol as described by Wilson et al. (supra)) containing 80 μL of water on top of a glass fiber filter, centrifuged, and the radioactivity in the eluate was counted as described previously by Wilson et al. (supra). […]

With `COc1cc(NC(=O)C(=O)c2c(C)n(Cc3ccc(Cl)cc3)c3ccc(OC(C)=O)cc23)ccn1` [Compound 1, 1-(4-chlorobenzyl)-3-(2-(2-methoxypyridin-4-ylamino)-2-oxoacetyl)-2-methyl-1H-indol-5-yl acetate] the pIC50 was > 7.00.

With `COc1cc(NC(=O)C(=O)c2c(C)n(Cc3ccc(Cl)cc3)c3ccc(O)cc23)ccn1` [Compound 2, 2-(1-(4-chlorobenzyl)-5-hydroxy-2-methyl-1H-indol-3-yl)-N-(2-methoxypyridin-4-yl)-2-oxoacetamide] the pIC50 was > 7.00.

For `COc1cc(NC(=O)C(=O)c2c(C)n(Cc3ccc(Cl)cc3)c3ccc(C(C)=O)cc23)ccn1` [Compound 5, 2-(5-acetyl-1-(4-chlorobenzyl)-2-methyl-1H-indol-3-yl)-N-(2-methoxypyridin-4-yl)-2-oxoacetamide], the pIC50 was > 7.00.

Compound `COc1cc(NC(=O)C(=O)c2c(C)n(Cc3ccc(Cl)cc3)c3ccc(C(=O)N(C)C)cc23)ccn1` [Compound 6, 1-(4-chlorobenzyl)-3-(2-(2-methoxypyridin-4-ylamino)-2-oxoacetyl)-N,N,2-trimethyl-1H-indole-5-carboxamide] has a pIC50 of 6.00 to 7.00.

In the case of `COc1cc(NC(=O)C(=O)c2c(C)n(Cc3ccc(Cl)cc3)c3ccc(N(C)C(=O)OC(C)(C)C)cc23)ccn1` [Compound 7, Tert-butyl(1-(4-chlorobenzyl)-3-(2-((2-methoxypyridin-4-yl)amino)-2-oxoacetyl)-2-methyl-1H-indol-5-yl)(methyl)carbamate], the pIC50 was 6.00 to 7.00.

In the case of `COc1cc(NC(=O)C(=O)c2c(C)n(Cc3ccc(Cl)cc3)c3ccc(CO)cc23)ccn1` [Compound 8, 2-(1-(4-chlorobenzyl)-5-(hydroxymethyl)-2-methyl-1H-indol-3-yl)-N-(2-methoxypyridin-4-yl)-2-oxoacetamide], the pIC50 was > 7.00.

For `CNc1ccc2c(c1)c(C(=O)C(=O)Nc1ccnc(OC)c1)c(C)n2Cc1ccc(Cl)cc1` [Compound 9, 2-(1-(4-chlorobenzyl)-2-methyl-5-(methylamino)-1H-indol-3-yl)-N-(2-methoxypyridin-4-yl)-2-oxoacetamide], the pIC50 was > 7.00.

For `COc1cc(NC(=O)C(=O)c2c(C)n(Cc3ccc(Cl)cc3)c3ccc(COC(C)=O)cc23)ccn1` [Compound 10, (1-(4-chlorobenzyl)-3-(2-(2-methoxypyridin-4-ylamino)-2-oxoacetyl)-2-methyl-1H-indol-5-yl)methyl acetate], the pIC50 was > 7.00.

With `COCc1ccc2c(c1)c(C(=O)C(=O)Nc1ccnc(OC)c1)c(C)n2Cc1ccc(Cl)cc1` [Compound 11, 2-(1-(4-chlorobenzyl)-5-(methoxymethyl)-2-methyl-1H-indol-3-yl)-N-(2-methoxypyridin-4-yl)-2-oxoacetamide] the pIC50 was > 7.00.

In the case of `COc1ccc2c(c1)c(C(=O)C(=O)Nc1ccnc(OC)c1)c(C)n2Cc1cnc(Cl)cn1` [Compound 12, 2-(1-((5-chloropyrazin-2-yl)methyl)-5-methoxy-2-methyl-1H-indol-3-yl)-N-(2-methoxypyridin-4-yl)-2-oxoacetamide], the pIC50 was > 7.00.

For `COc1cc(NC(=O)C(=O)c2c(C)n(Cc3ncc(Cl)cc3Cl)c3cc(F)c(OC)cc23)ccn1` [Compound 13, 2-(1-((3,5-dichloropyridin-2-yl)methyl)-6-fluoro-5-methoxy-2-methyl-1H-indol-3-yl)-N-(2-methoxypyridin-4-yl)-2-oxoacetamide], the pIC50 was > 7.00.

In the case of `COc1cc(NC(=O)C(=O)c2c(C)n(Cc3ccc(F)cc3F)c3cc(F)c(OC)cc23)ccn1` [Compound 14, 2-(1-(2,4-difluorobenzyl)-6-fluoro-5-methoxy-2-methyl-1H-indol-3-yl)-N-(2-methoxypyridin-4-yl)-2-oxoacetamide], the pIC50 was > 7.00.

`COc1cc(NC(=O)C(=O)c2c(C)n(Cc3ccc(Cl)cc3)c3ccc(C#N)cc23)ccn1` [Compound 15, 2-(1-(4-chlorobenzyl)-5-cyano-2-methyl-1H-indol-3-yl)-N-(2-methoxypyridin-4-yl)-2-oxoacetamide] was tested, and the pIC50 was > 7.00.

`COc1ccc2c(c1)c(C(=O)C(=O)Nc1ccnc(OC)c1)c(C)n2Cc1ccncc1` [Compound 16, 2-(5-methoxy-2-methyl-1-(pyridin-4-ylmethyl)-1H-indol-3-yl)-N-(2-methoxypyridin-4-yl)-2-oxoacetamide] gave a pIC50 of 6.00 to 7.00.

`COc1cc(NC(=O)C(=O)c2c(C)n(Cc3ccc(Cl)cc3)c3ccc(N(C)C)cc23)ccn1` [Compound 17, 2-(1-(4-chlorobenzyl)-5-(dimethylamino)-2-methyl-1H-indol-3-yl)-N-(2-methoxypyridin-4-yl)-2-oxoacetamide] was tested, and the pIC50 was > 7.00.

With `COc1cc(NC(=O)C(=O)c2c(C)n(Cc3ccc(Cl)cc3)c3ccc(Br)cc23)ccn1` [Compound 18, 2-(5-bromo-1-(4-chlorobenzyl)-2-methyl-1H-indol-3-yl)-N-(2-methoxypyridin-4-yl)-2-oxoacetamide] the pIC50 was > 7.00.

With `COc1cc(NC(=O)C(=O)c2c(C)n(Cc3ccc(Cl)cc3)c3ccc([N+](=O)[O-])cc23)ccn1` [Compound 19, 2-(1-(4-chlorobenzyl)-2-methyl-5-nitro-1H-indol-3-yl)-N-(2-methoxypyridin-4-yl)-2-oxoacetamide] the pIC50 was > 7.00.

In the case of `COc1cc(NC(=O)C(=O)c2c(C)n(Cc3ccc(Cl)cc3)c3ccc(N)cc23)ccn1` [Compound 20, 2-(5-amino-1-(4-chlorobenzyl)-2-methyl-1H-indol-3-yl)-N-(2-methoxypyridin-4-yl)-2-oxoacetamide], the pIC50 was > 7.00.

For `COc1cc(NC(=O)C(=O)c2c(C)n(Cc3ccc(Cl)cc3)c3ccc(C(F)(F)F)cc23)ccn1` [Compound 21, 2-(1-(4-chlorobenzyl)-2-methyl-5-(trifluoromethyl)-1H-indol-3-yl)-N-(2-methoxypyridin-4-yl)-2-oxoacetamide], the pIC50 was > 7.00.

For `COc1cc(NC(=O)C(=O)c2c(C)n(Cc3ccc(Cl)cc3)c3ccc(NC(C)=O)cc23)ccn1` [Compound 22, 2-(5-acetamido-1-(4-chlorobenzyl)-2-methyl-1H-indol-3-yl)-N-(2-methoxypyridin-4-yl)-2-oxoacetamide], the pIC50 was 6.00 to 7.00.

In the case of `COc1cc(NC(=O)C(=O)c2c(C)n(Cc3ccc(Cl)cc3)c3ccc(OC(F)(F)F)cc23)ccn1` [Compound 23, 2-(1-(4-chlorobenzyl)-2-methyl-5-(trifluoromethoxy)-1H-indol-3-yl)-N-(2-methoxypyridin-4-yl)-2-oxoacetamide], the pIC50 was > 7.00.

With `CCN(CC)c1ccc2c(c1)c(C(=O)C(=O)Nc1ccnc(OC)c1)c(C)n2Cc1ccc(Cl)cc1` [Compound 24, 2-(1-(4-chlorobenzyl)-5-(diethylamino)-2-methyl-1H-indol-3-yl)-N-(2-methoxypyridin-4-yl)-2-oxoacetamide] the pIC50 was 6.00 to 7.00.
